The target of one test is T1, BMP2K (Homo sapiens, UniProt Q9NSY1).
T1 construct: endogenous in cells; host or cells: AsPC-1 lysate
As to the kind of experiment: Kinobeads competition pulldown in AsPC-1 lysate. The format is binding. How it is done:
This was followed by incubation with Kinobeads ε (17.5 µl of settled beads) for 30 min at 4 °C to enrich kinases. […] Enriched proteins were reduced with 50 mM DTT in 8 M urea, 40 mM Tris-HCl, pH 7.4 for 30 min at room temperature, and alkylated with 55 mM chloroacetamide. After reducing the urea concentration to 1–2 M, proteins were digested with trypsin at 37 °C for 16 h. Subsequently, eluted peptides were desalted using SepPak tC18 µElution plates (Waters), freeze-dried by vacuum centrifugation, and stored at −20 °C.
For LC-MS/MS, dried peptides were reconstituted in 0.1% formic acid and analyzed on a Dionex Ultimate3000 nano HPLC (Thermo Scientific) coupled to an Orbitrap Fusion Tribrid mass spectrometer (Thermo Scientific), which was run in data-dependent mode. Peptides were first delivered to a trap column (100 µm × 2 cm, packed in-house with Reprosil-Gold C18 ODS-3 5 µm resin, Dr. Maisch, Ammerbuch) and subsequently washed with solvent A0 (0.1% formic acid in HPLC grade water) at 5 µl/min for 10 min. […] For MS2, up to 12 peptide precursors were isolated (isolation width of 1.2 Th) and subjected to HCD fragmentation using 30% normalized collision energy. […] The duration of dynamic exclusion was set to 30 s.
Oxidized methionine and N-terminal acetylation were set as variable modification, and cysteine carbamidomethylation was set as fixed modification. Label-free quantification (LFQ) and match-between-runs were enabled. All searches were performed with 1% PSM and protein FDR.
Proteins were filtered by potential contaminants, reversed hits and proteins identified only by site. Residual binding of proteins was calculated from LFQ intensities as the ratio between drug doses and vehicle. […] Only kinases quantified with at least 4 unique peptides in the vehicle experiment were considered. Potential targets were further curated through manual inspection of dose-dependent reduction in MS/MS and unique peptide counts.

A further test has as its system TNK1. The settings on record: cited from earlier work.
Another test deals with CLK1. Conditions: cited from earlier work.
Another test concerns the target FRK. Details: method as in Reinecke et al. (2023). Conditions: 5 cell line mix lysate, Kinobeads ε, ref Reinecke et al. (2023), cited from earlier work.
For another test, the target named is CAMK2D. The settings on record: cited from earlier work.
Another test has as its target CAMK2G. The settings on record: cited from earlier work.
The next test relates to PRKD3. The settings on record: cited from earlier work.
In a further test the test system is AAK1. The settings on record: cited from earlier work.
The next test relates to IRAK4. Conditions: cited from earlier work.
The test system of a further test is PAK4. The settings on record: cited from earlier work.
The test system of another test is RPS6KA4. Conditions: cited from earlier work.
In the next test the test system is PKN1. Conditions: cited from earlier work.
For the next test, the system named is p-sites in Capan-1 cells. As to the kind of experiment: Phosphoproteomics GEM + Elimusertib vs. GEM (non-decryptM). Format: cell-based, human. On the procedure:
(§1) Cell culture medium was replaced 24 h after seeding. […] For time point 0, AsPC-1 cells were treated with a vehicle and lysed immediately. The final DMSO concentration in all experiments was 0.2%.
(§2) Oxidized methionine, N-terminal acetylation, and phosphorylation (STY) were set as variable modification, and cysteine carbamidomethylation was set as fixed modification. All other search parameters were kept as default, except for protein FDR which was set to 1. […] Potential contaminants and reversed hits were removed, and only peptides with unambiguously assigned phosphorylation sites with a localization probability of > 0.75 were retained. To acquire site-level quantification values, the corrected reporter ion intensities of peptides containing the same phosphosite(s) were summed up. Median centering of corrected TMT reporter channel intensities was performed. […] Channel 11 served as a vehicle for the chemodrug treatment and was not subjected to curve fitting. Instead, row-wise normalization was performed across all four TMT-batches using the medians of channels 10 and 11. […] Phosphoproteomic experiments in six additional cell lines (not dose-resolved) were median-centered within each TMT-batch, prior to row-wise normalization across all TMT-batches using a common channel filled with AsPC-1 lysate (Appendix Table S5). Two-sided t-test analysis and multiple hypothesis testing correction was performed in R using the same parameters and thresholds as described above.

Another test deals with p-sites in Dan-G cells. Described as above. Format: cell-based, human. How it is done: as §1, §2
Test [1] relates to p-sites in MiaPaCa-2 cells. The test is described as above. The format is cell-based, human. How it is done:
as §1, §2

The next test deals with p-sites in PANC-1 cells. The test is described as above. The format is cell-based, human. How it is done:
as §1, §2

Another test relates to p-sites in PSN-1 cells. The description is as above. The format is cell-based, human. How it is done: as §1, §2
Test [2] has as its system p-sites in PaTu-8988-T cells. Described as above. The format is cell-based, human. On the procedure:
as §1, §2

The mark [3] stands for this setting: TNK1, 5 cell line mix lysate, Kinobeads ε, ref Reinecke et al. (2023).
The mark [4] stands for this setting: CLK1, 5 cell line mix lysate, Kinobeads ε, ref Reinecke et al. (2023).
[5] abbreviates: 5 cell line mix lysate, Kinobeads ε, ref Reinecke et al. (2023), read-out: KDapp.
Where [6] appears, read: 5 cell line mix lysate, Kinobeads ε, ref Reinecke et al. (2023).
[7] abbreviates: PRKD3, 5 cell line mix lysate, Kinobeads ε, ref Reinecke et al. (2023).
[8] abbreviates: AAK1, 5 cell line mix lysate, Kinobeads ε, ref Reinecke et al. (2023).
The mark [9] stands for this setting: IRAK4, 5 cell line mix lysate, Kinobeads ε, ref Reinecke et al. (2023).
The mark [10] stands for this setting: PAK4, 5 cell line mix lysate, Kinobeads ε, ref Reinecke et al. (2023).
[11] abbreviates: RPS6KA4, 5 cell line mix lysate, Kinobeads ε, ref Reinecke et al. (2023).
The mark [12] stands for this setting: PKN1, 5 cell line mix lysate, Kinobeads ε, ref Reinecke et al. (2023).
Setting [13] is: 4 cell line mix lysate, Kinobeads y, ref Klaeger et al. (2017).

SMILES strings stand for the structures. Where “and” joins values, the source holds several entries; their conditions need not be identical. Identical values can stand only once. Like-named read-outs stand apart in the source and are kept apart here.

T1 sequence (Q9NSY1 whole entry): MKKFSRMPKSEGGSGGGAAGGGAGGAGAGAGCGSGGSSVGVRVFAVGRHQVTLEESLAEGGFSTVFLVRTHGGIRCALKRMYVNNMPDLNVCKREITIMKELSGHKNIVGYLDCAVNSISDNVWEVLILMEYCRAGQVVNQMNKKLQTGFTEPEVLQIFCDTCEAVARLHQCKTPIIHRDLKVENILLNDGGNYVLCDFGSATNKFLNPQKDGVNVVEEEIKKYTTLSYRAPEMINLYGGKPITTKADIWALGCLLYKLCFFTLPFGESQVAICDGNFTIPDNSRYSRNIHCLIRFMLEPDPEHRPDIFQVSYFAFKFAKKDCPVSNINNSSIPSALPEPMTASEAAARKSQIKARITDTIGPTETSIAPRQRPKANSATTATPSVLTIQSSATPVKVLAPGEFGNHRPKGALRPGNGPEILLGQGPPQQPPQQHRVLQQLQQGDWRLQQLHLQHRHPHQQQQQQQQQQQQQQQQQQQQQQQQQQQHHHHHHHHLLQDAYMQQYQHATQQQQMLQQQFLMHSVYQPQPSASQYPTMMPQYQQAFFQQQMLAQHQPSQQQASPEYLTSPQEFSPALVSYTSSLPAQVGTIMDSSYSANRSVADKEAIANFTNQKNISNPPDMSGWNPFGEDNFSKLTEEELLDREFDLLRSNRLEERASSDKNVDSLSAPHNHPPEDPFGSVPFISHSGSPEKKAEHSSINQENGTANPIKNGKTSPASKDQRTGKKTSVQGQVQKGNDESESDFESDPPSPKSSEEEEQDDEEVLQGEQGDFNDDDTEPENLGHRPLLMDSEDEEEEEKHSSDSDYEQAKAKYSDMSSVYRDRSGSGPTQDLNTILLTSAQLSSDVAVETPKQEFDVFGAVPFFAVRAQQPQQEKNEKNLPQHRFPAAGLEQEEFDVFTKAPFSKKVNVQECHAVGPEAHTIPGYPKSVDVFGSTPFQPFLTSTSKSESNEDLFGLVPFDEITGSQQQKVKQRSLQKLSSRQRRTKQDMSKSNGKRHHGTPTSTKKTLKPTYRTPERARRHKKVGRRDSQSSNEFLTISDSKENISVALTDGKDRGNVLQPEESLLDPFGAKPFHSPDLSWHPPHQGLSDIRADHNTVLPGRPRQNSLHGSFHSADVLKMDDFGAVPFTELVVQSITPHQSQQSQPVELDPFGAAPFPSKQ

The term EC50 denotes the concentration giving half of the maximal effect. As to `CNCc1ccc(-c2cc(-c3nc(-c4ccc(S(=O)(=O)C(C)C)cc4)cnc3N)on2)cc1` [Berzosertib], the Kd at BMP2K (AsPC-1 lysate, read-out: KDapp) is 19.9 nM. Moreover, the EC50 at BMP2K (Kinobeads residual binding curve) amounted to 35.7 nM.
As for `COc1cc(N2CCC(N3CCN(C)CC3)CC2)ccc1Nc1ncc(Cl)c(Nc2ccccc2P(C)(C)=O)n1` [Brigatinib], the EC50 with TNK1 (setting [3]) is 1.59 nM; in the test with CLK1 (setting [4]), 13.1 nM; with FRK, 156 nM; in the test with CAMK2D (setting [6]), 424 nM; in the test on CAMK2G (setting [6]), 429 nM; in the test with PRKD3 (setting [7]), 259 nM. Moreover, the EC50 with AAK1 (setting [8]) was 328 nM; in the test on IRAK4 (setting [9]), 492 nM; in the test on PAK4 (setting [10]), 1190 nM; with RPS6KA4 (setting [11]) it was 2080 nM; in the test with PKN1 (setting [12]), 2270 nM. Besides, the pKDapp is reported as 9.16 at TNK1 (setting [3]); 8.03 at CLK1 (setting [4]); 7.28 at FRK; 7.06 at CAMK2D (setting [6]); 7.03 on CAMK2G (setting [6]); 6.72 at PRKD3 (setting [7]). Besides, the pKDapp is given as 6.66 at AAK1 (setting [8]); 6.42 at IRAK4 (setting [9]); 6.14 at PAK4 (setting [10]); 5.89 at RPS6KA4 (setting [11]); 5.70 at PKN1 (setting [12]). In addition, the Kd was 0.69 nM on TNK1 (TNK1, 5 cell line mix lysate, Kinobeads ε, ref Reinecke et al. (2023), read-out: KDapp); 9.35 nM at CLK1 (CLK1, 5 cell line mix lysate, Kinobeads ε, ref Reinecke et al. (2023), read-out: KDapp); 53 nM at FRK (read-out: KDapp); 86.4 nM at CAMK2D (setting [5]); 93.2 nM at CAMK2G (setting [5]); 192 nM at PRKD3 (PRKD3, 5 cell line mix lysate, Kinobeads ε, ref Reinecke et al. (2023), read-out: KDapp). Further, the Kd on AAK1 (AAK1, 5 cell line mix lysate, Kinobeads ε, ref Reinecke et al. (2023), read-out: KDapp) is 220 nM; on IRAK4 (IRAK4, 5 cell line mix lysate, Kinobeads ε, ref Reinecke et al. (2023), read-out: KDapp) it was 381 nM; at PAK4 (PAK4, 5 cell line mix lysate, Kinobeads ε, ref Reinecke et al. (2023), read-out: KDapp) it was 718 nM; on RPS6KA4 (RPS6KA4, 5 cell line mix lysate, Kinobeads ε, ref Reinecke et al. (2023), read-out: KDapp) it was 1290 nM; at PKN1 (PKN1, 5 cell line mix lysate, Kinobeads ε, ref Reinecke et al. (2023), read-out: KDapp) it was 1990 nM.
Regarding `C[C@]12O[C@H](C[C@]1(O)CO)n1c3ccccc3c3c4c(c5c6ccccc6n2c5c31)CNC4=O` [Lestaurtinib], the EC50 was […] in the test with TNK1 (TNK1, 4 cell line mix lysate, Kinobeads y, ref Klaeger et al. (2017)); […] with CLK1 (CLK1, 4 cell line mix lysate, Kinobeads y, ref Klaeger et al. (2017)); […] in the test with CAMK2D (setting [13]); […] in the test on CAMK2G (setting [13]); […] with PRKD3 (PRKD3, 4 cell line mix lysate, Kinobeads y, ref Klaeger et al. (2017)); […] in the test with AAK1 (AAK1, 4 cell line mix lysate, Kinobeads y, ref Klaeger et al. (2017)). For the same compound, the EC50 in the test with IRAK4 (IRAK4, 4 cell line mix lysate, Kinobeads y, ref Klaeger et al. (2017)) is […]; in the test on PAK4 (PAK4, 4 cell line mix lysate, Kinobeads y, ref Klaeger et al. (2017)), […]; in the test on RPS6KA4 (RPS6KA4, 4 cell line mix lysate, Kinobeads y, ref Klaeger et al. (2017)) it was […]; with PKN1 (PKN1, 4 cell line mix lysate, Kinobeads y, ref Klaeger et al. (2017)), […].
For the compound `Nc1ccn([C@@H]2O[C@H](CO)[C@@H](O)C2(F)F)c(=O)n1` [GEM, Gemcitabine], the “Mean log2 TMT reporter ion intensity” value with p-sites in Capan-1 cells (source data 5F (p-site not named), CAPAN1) was found to be 20.29; in the test on p-sites in Dan-G cells (source data 5F (p-site not named), DANG), 20.35; in [1] (source data 5F (p-site not named), MIAPACA2) it was 18.24; with p-sites in PANC-1 cells (source data 5F (p-site not named), PANC1), 18.30; in the test on p-sites in PSN-1 cells (source data 5F (p-site not named), PSN1), 19.41; in test [2] (source data 5F (p-site not named), PATU8988T), 19.97.
With `C[C@@H]1COCCN1c1cc(-c2ccnn2C)c2ccnc(-c3ccn[nH]3)c2n1` [Elimusertib], the “Mean log2 PTM response (GEM+Elimusertib vs. GEM)” value in the test on p-sites in Capan-1 cells was -1.06; in the test on p-sites in Dan-G cells, -1.06 and -1.18 and -1.05; in test [1], -1.06; in the test with p-sites in PANC-1 cells, -1.13; in the test on p-sites in PSN-1 cells it was -1.04 and -1.16; in [2] it was -1.04.
